Consider 3 compounds from ChEMBL document CHEMBL5465560, “Selectivity Literature for EUbOPEN Chemogenomic Library” (2024).

Test [1] concerns the target T1, Tyrosine-protein kinase Mer (Homo sapiens) (UniProt Q12866).
T1 sequence (whole entry): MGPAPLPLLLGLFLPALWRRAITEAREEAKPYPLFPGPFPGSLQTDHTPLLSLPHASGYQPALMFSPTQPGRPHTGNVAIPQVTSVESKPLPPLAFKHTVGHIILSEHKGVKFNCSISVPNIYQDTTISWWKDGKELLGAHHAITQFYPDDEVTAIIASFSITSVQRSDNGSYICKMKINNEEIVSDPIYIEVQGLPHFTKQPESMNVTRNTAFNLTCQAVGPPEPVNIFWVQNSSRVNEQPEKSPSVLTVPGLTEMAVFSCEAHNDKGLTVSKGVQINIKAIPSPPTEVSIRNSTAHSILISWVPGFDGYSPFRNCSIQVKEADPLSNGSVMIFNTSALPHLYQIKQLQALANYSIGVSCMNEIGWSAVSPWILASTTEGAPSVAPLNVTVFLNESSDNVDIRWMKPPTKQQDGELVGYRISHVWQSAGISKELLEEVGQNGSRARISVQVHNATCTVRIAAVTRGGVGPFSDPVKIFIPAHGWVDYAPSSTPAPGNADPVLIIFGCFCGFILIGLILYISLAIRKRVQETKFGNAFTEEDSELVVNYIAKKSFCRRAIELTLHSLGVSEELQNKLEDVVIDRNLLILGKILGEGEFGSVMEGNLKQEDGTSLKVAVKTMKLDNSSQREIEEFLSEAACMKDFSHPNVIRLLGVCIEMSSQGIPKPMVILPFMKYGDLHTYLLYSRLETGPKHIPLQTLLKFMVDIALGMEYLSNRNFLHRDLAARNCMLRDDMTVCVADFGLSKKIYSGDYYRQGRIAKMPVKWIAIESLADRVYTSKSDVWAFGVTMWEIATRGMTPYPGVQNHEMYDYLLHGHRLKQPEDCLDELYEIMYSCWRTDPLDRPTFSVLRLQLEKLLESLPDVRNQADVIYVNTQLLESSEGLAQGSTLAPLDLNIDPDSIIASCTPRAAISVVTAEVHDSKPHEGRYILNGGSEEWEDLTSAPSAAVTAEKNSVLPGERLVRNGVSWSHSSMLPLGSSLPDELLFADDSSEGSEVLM
Nature of the test: Selectivity interaction (KinomeScan (DiscoverX)) EUB0001049a MERTK. The conditions noted are these: at 1 µM.

For test [2], the system named is Hepatocyte growth factor receptor (Homo sapiens), P08581 [D1228H]. Nature of the test: (§1) Selectivity interaction (ProQinase) EUB0000171b MET.
The subject of test [3] is Hepatocyte growth factor receptor (Homo sapiens), P08581 [D1228N]. The description is as §1.
The test system of test [4] is Hepatocyte growth factor receptor (Homo sapiens), P08581 [F1200I]. The test is described as §1.
For test [5], the system named is Hepatocyte growth factor receptor (Homo sapiens), P08581 [M1250T]. Described as §1.
Test [6] deals with Hepatocyte growth factor receptor (Homo sapiens), P08581 [Y1230A]. Described as §1.
In test [7] the test system is Hepatocyte growth factor receptor (Homo sapiens), P08581 [Y1230C]. The description is as §1.
In test [8] the test system is Hepatocyte growth factor receptor (Homo sapiens), P08581 [Y1230D]. The description is as §1.
Test [9] deals with Hepatocyte growth factor receptor (Homo sapiens), P08581 [Y1230H]. Described as §1.
In test [10] the test system is Hepatocyte growth factor receptor (Homo sapiens), P08581 [Y1235D]. The description is as §1.
Test [11] addresses Hepatocyte growth factor receptor (Homo sapiens, UniProt P08581). The description is as §1.
The target in test [12] is T2, Serine/threonine-protein kinase TAO1 (Homo sapiens) (UniProt Q7L7X3).
T2 sequence (whole entry): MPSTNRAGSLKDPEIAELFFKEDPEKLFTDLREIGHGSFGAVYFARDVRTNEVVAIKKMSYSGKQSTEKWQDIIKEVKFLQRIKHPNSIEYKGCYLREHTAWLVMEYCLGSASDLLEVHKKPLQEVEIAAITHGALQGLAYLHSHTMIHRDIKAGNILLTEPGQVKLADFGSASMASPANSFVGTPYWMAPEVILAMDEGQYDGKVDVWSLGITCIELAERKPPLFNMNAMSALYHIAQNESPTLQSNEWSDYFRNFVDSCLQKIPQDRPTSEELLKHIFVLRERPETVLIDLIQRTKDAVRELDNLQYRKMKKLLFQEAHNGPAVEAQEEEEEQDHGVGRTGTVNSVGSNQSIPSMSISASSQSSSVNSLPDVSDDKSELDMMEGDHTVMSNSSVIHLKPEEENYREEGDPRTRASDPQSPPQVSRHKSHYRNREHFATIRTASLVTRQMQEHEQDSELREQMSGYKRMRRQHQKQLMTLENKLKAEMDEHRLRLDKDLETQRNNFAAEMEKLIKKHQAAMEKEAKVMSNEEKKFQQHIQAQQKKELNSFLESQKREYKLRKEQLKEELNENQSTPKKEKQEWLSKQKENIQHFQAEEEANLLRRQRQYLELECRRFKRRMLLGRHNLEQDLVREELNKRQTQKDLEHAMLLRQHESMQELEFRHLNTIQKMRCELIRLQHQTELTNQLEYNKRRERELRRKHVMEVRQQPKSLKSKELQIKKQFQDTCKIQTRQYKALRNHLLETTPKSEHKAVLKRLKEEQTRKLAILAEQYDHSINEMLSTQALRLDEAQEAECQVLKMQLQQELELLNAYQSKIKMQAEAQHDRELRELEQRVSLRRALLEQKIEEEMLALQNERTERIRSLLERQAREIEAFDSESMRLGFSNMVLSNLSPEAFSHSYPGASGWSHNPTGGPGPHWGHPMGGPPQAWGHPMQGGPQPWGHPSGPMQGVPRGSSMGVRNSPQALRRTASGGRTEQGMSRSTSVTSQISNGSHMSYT
Nature of the test: Selectivity interaction (KinomeScan (DiscoverX)) EUB0000092b TAOK1. The conditions noted are these: at 10 µM.

Chain of Hepatocyte growth factor receptor (Homo sapiens), P08581 [Y1230D] (P08581 whole entry Y1230D): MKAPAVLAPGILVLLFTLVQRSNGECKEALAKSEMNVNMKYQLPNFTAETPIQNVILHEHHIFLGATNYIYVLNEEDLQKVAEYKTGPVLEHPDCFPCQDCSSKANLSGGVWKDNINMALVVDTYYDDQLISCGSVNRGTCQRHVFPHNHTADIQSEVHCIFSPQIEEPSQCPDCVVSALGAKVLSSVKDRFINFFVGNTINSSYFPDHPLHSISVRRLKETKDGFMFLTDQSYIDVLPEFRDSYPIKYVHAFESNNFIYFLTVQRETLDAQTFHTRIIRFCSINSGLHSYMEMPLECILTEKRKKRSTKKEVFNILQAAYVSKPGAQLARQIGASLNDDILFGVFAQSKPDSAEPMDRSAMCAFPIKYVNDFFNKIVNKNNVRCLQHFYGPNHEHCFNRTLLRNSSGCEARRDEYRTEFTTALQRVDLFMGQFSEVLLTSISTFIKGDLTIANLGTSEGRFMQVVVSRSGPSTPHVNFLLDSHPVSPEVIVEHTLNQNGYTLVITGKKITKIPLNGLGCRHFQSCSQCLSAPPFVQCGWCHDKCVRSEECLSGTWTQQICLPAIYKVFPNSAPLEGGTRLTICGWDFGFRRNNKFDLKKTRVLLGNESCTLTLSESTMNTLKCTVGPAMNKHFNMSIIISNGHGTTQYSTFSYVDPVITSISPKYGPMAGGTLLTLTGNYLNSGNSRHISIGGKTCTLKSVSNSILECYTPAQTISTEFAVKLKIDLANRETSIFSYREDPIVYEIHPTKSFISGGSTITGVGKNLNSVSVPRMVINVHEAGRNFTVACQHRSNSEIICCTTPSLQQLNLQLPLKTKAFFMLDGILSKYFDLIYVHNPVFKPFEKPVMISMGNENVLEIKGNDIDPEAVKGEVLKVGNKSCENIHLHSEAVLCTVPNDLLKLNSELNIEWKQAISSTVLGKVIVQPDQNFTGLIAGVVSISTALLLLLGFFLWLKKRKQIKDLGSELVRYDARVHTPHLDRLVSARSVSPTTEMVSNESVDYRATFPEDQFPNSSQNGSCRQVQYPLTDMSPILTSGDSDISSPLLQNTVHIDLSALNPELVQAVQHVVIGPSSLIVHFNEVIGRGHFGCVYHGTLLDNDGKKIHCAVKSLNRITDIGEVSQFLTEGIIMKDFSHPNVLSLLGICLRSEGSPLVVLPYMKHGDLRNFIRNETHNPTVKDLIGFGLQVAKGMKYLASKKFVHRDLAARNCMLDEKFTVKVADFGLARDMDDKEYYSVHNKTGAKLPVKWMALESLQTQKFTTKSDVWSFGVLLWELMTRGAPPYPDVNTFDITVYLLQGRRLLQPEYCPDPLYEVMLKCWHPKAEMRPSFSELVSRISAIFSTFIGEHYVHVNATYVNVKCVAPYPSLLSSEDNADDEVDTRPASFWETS
Chain of Hepatocyte growth factor receptor (Homo sapiens), P08581 [Y1235D] (P08581 whole entry Y1235D): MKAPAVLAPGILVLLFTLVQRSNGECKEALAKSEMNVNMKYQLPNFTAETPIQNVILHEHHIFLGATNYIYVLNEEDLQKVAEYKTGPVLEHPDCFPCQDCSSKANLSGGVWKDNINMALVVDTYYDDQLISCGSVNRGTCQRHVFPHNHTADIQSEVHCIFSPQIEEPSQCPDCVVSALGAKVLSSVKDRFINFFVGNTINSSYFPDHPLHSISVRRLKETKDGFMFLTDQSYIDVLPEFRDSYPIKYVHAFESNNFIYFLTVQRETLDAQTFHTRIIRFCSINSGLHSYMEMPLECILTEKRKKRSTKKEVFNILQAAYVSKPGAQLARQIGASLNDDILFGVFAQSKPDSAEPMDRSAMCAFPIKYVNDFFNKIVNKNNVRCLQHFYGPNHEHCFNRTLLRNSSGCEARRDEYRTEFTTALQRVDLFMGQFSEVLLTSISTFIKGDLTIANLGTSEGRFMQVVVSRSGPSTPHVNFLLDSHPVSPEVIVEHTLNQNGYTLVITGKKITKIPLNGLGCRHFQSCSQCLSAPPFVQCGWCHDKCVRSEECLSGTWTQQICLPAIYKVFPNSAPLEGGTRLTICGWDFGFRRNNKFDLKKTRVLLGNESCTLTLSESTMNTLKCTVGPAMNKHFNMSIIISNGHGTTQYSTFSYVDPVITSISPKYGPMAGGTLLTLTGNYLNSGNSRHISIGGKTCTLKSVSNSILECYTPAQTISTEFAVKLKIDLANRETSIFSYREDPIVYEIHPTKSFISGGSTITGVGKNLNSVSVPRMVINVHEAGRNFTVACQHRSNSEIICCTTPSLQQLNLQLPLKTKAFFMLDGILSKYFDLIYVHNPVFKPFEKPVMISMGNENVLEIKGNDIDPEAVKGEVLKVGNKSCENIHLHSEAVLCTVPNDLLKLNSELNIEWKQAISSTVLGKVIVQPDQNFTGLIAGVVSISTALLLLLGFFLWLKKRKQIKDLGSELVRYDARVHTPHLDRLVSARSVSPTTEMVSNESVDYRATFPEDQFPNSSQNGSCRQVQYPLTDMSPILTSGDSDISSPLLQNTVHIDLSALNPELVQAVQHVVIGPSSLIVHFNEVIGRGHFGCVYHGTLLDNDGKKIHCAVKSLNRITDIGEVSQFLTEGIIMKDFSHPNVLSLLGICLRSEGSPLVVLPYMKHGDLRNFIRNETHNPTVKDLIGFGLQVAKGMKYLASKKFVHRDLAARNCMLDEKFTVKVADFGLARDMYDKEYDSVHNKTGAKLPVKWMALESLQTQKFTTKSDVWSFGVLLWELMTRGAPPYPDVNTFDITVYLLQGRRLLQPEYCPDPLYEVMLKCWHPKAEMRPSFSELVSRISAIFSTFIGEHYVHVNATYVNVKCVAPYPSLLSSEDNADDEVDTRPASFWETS
Chain of Hepatocyte growth factor receptor (Homo sapiens), P08581 [Y1230A] (P08581 whole entry Y1230A): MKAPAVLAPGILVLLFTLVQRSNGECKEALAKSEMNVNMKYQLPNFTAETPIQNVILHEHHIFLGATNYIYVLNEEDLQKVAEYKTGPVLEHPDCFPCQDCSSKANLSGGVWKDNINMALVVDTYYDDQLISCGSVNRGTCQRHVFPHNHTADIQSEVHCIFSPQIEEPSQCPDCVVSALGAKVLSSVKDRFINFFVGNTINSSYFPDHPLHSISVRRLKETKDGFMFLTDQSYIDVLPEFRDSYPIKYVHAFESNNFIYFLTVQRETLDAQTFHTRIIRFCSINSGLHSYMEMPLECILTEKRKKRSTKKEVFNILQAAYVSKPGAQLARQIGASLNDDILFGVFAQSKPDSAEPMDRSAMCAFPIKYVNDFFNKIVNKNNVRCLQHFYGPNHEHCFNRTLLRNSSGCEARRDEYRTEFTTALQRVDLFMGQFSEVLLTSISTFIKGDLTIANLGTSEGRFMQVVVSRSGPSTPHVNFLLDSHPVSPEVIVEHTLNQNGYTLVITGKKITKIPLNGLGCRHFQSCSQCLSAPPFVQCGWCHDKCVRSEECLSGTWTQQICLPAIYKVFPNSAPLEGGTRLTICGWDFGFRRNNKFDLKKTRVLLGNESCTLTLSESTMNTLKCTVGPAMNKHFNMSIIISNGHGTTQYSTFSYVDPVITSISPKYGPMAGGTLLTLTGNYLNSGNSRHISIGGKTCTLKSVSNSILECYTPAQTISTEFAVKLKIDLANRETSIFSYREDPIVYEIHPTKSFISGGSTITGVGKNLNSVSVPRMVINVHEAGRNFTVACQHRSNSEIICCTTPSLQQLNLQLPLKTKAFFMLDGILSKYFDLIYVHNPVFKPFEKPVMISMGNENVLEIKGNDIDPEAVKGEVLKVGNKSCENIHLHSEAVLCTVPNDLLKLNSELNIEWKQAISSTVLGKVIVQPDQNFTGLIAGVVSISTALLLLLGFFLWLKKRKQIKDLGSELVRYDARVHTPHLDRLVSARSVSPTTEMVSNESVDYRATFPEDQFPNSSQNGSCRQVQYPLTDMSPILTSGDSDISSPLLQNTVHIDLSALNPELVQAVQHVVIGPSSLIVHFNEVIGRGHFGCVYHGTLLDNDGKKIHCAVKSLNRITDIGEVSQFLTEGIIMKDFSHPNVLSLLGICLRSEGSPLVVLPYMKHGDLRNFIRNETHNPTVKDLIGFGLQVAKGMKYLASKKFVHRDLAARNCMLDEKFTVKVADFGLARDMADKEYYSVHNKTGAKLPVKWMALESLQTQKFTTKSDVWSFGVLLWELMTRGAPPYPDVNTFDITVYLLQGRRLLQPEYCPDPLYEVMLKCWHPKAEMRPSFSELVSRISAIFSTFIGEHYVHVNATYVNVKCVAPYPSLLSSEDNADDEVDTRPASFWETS

`COc1cc(Nc2nc(C)cc(-c3cnn4nc(OC)ccc34)n2)cc(C(F)(F)F)c1` came in with a % of control in test [1] of 98%.
For `C=CC(=O)Nc1cccc(C(=O)Nc2ccc(Nc3cc(-c4[nH]c(SC)nc4C)ccn3)cc2)c1`, the % of control is 76% in test [2] (at 1 µM); 65% in test [2] (at 5 µM); 89% in test [3] (at 1 µM); 74% in [3] (at 5 µM); 81% in [4] (at 1 µM); 59% in test [4] (at 5 µM). The % of control stood at 88% in test [5] (at 1 µM); 65% in test [5] (at 5 µM); 97% in test [6] (at 1 µM); 85% in [6] (at 5 µM); 90% in test [7] (at 1 µM); 76% in [7] (at 5 µM). The % of control in [8] (at 1 µM) is 88%; in test [8] (at 5 µM), 73%; in [9] (at 1 µM) it was 92%; in test [9] (at 5 µM) it was 72%; in test [10] (at 1 µM) it was 105%; in test [10] (at 5 µM) it was 86%. Moreover, the % of control in test [11] (at 1 µM) came out at 93%; in test [11] (at 5 µM), 78%.
`CCC(=O)N1CCN(c2ccc(-n3c(=O)ccc4cnc5ccc(-c6cnc7ccccc7c6)cc5c43)cc2C(F)(F)F)CC1` gave a % of control in [12] of 58%.
